Results taken from US20010041346A1, “METHOD FOR ASSAYING COMPOUNDS AFFECTING SMOOTH MUSCLE CONTRACTILE STATE” (priority 1999, published 2001).

Tests used:
[1] = tested on: PP1M; experiment: Phosphatase assay in anti-MBS immunopellets; type: biochemical, human
[2] = tested on: myosin light chain phosphorylation in rat aortic smooth muscle cells; experiment: Agonist-stimulated myosin light chain phosphorylation in intact vascular smooth muscle cells; type: cell-based; conditions: n=3
Source text: The extent of agonist-stimulated myosin light chain phosphorylation was quantified in intact vascular smooth muscle cells transfected with either vector alone or a plasmid expressing the cGK1α leucine/isoleucine zipper domain (CGK1-59), to examine the effects of disrupting the cGK1α-MBS interaction on cGMP-mediated inhibition of myosin light chain phosphorylation. cGK1α1-59 was cloned into the mammalian expression vector pCI (Promega, Madison, Wis.). Rat aortic smooth muscle cells of passage 6 through 10 were transfected with either vector alone (pCI) or cDNA for the leucine/isoleucine zipper peptide from cGK (cGK1α1-59pCI) by electroporation. Cells were arrested in DME supplemented with insulin, ascorbic acid and transferrin, then stimulated with 2 μM of the thromboxane analogue U46619 for 1 minute in the absence or presence of 20 minute pretreatment with 1 mM 8-Br-cGMP. Following treatment, cells were precipitated with trichloroacetic acid, washed with acetone, and protein was subjected to glycerol-urea electrophoresis (Taylor et al., J. Biol Chem. 263, 14456, 1988). Myosin light chain phosphorylation state was quantified by immunoblotting the unphosphorylated and phosphorylated forms of myosin light chain with monoclonal antimyosin light chain antibody (Sigma, clone MY-21). Protein bands were analyzed by densitometry. Statistical analysis was performed using Student-Newman-Keuls method. Data represent the means+/−standard error of three separate experiments in duplicate.

[3] = target: T1, PP1M phosphatase activity (Homo sapiens, UniProt P62140); experiment: Phosphatase assay in cGKIα immunopellets; type: biochemical
T1 construct: cGKIα was immunoprecipitated and phosphatase activity was assayed in the immunopellets as described herein; endogenous in cells; host or cells: human saphenous vein smooth muscle cells

[4] = target: T2, AL9 (carboxy-terminal 181 amino acids of MBS) (Homo sapiens, UniProt O14974); experiment: Yeast two-hybrid interaction assay (HIS3 and LacZ reporter activation); type: binding; conditions: yeast strain Y190
T2 construct: expressed in transfected cells; host or cells: Saccharomyces cerevisiae Y190
T2 sequence (O14974 850-1030 limits assumed): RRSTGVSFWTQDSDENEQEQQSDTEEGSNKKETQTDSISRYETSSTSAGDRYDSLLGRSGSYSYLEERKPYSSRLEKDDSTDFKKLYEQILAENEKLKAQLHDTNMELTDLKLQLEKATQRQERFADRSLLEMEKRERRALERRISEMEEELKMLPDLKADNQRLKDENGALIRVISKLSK
Description: Colonies were lifted onto NitroPure nitrocellulose filters (MSI, Westboro, Mass.) which were then submerged in liquid nitrogen for 15 seconds, placed on presoaked Whatman #5 paper (in Z buffer: 60 mM Na2HPO4.7H2O, 40 mM NaH2PO4.H2O, 10 mM KCl, 1 mM MgSO4.7H2O), 50 mM β-mercaptoethanol, pH 7.0, and incubated at 37° for up to 12 hours.
Polypeptides interacting with cGK-PC97 were detected by their ability to activate transcription of histidine (HIS3) and β-galactosidase (LacZ) reporter genes via reconstitution of the Gal4 transcription factor. MaV103 colonies capable of growing on media lacking histidine were assayed for β-galactosidase activity using the colony-lift filter assay, according to standard techniques and as described herein. PC86 plasmids (containing the activated T cell library) from His3+, LacZ+ colonies were isolated and the library cDNA insert sequenced. 2.5×10^6 clones were screened from the T cell library.
To verify the interaction of AL9 with cGK1α, individual plasmids were introduced into S. cerevisiae strain Y190 (Clontech, Palo Alto, Calif.) by the lithium acetate method and assayed for reporter gene activation, as above. Y190 was transformed with cGK1α/GalDB or GalDB alone, in combination with AL9/GalAD or GalAD alone, and plated on Sc-His (synthetic complete medium, minus histidine) and YPD (yeast extract, peptone, dextrose) plates. β-galactosidase activity assays, on colonies from the YPD plate, were also performed. […] Thus, cotransformation of AL9 and cGK1α into S. cerevisiae confirmed the interaction of full-length cGK1α with the carboxy-terminal 181 amino acids of MBS.
Yeast strain Y190 was transformed with AL9/GalAD in combination with the cGK1α/GalDB truncation mutants and plated on YPD and Sc-His plates. Colony lift β-Galactosidase assays for the yeast colonies growing on the YPD plate were also performed. […] Thus, the C-terminus of MBS (AL9) interacts with the N-terminus of cGK1α (cGK1α1-59).
Site-directed mutagenesis was employed to replace selected leucine or isoleucine residues in the N-terminus of cGKIα. cGK1α1-59 was cloned into vector pcDNA3.1 (Invitrogen, Carlsbad, Calif.) using the method of Kunkel et al. (Kunkel et al., Methods in Enzymology, 154: 367-382, 1987). Three mutants of the leucine/isoleucine zipper of cGKIα were prepared: Leu12 and Ile19 to Ala (cGKLLZ1,2A); Leu26 to Pro (cGKLZ3P); Ile33 and Leu40 to Ala (cGKLZ4,5A). All mutants were confirmed by DNA sequencing, then subcloned into vector PC97 for expression in yeast. cGKLz1,2A, GKLZ3P, and GKLZ4,5A were each cotransformed with AL9 in yeast strain Y190 , and reporter gene activation assayed as described herein.

T1 sequence (P62140 whole entry): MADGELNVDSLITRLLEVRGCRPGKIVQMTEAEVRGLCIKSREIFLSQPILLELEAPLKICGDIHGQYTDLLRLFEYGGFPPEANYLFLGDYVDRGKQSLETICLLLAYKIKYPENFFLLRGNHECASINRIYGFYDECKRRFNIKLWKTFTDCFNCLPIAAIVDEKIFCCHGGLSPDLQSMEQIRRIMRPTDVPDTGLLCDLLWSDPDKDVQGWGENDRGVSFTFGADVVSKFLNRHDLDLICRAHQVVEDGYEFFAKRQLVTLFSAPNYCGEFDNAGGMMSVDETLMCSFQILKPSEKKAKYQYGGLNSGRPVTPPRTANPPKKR
T1 sequence (O14974 whole entry partner): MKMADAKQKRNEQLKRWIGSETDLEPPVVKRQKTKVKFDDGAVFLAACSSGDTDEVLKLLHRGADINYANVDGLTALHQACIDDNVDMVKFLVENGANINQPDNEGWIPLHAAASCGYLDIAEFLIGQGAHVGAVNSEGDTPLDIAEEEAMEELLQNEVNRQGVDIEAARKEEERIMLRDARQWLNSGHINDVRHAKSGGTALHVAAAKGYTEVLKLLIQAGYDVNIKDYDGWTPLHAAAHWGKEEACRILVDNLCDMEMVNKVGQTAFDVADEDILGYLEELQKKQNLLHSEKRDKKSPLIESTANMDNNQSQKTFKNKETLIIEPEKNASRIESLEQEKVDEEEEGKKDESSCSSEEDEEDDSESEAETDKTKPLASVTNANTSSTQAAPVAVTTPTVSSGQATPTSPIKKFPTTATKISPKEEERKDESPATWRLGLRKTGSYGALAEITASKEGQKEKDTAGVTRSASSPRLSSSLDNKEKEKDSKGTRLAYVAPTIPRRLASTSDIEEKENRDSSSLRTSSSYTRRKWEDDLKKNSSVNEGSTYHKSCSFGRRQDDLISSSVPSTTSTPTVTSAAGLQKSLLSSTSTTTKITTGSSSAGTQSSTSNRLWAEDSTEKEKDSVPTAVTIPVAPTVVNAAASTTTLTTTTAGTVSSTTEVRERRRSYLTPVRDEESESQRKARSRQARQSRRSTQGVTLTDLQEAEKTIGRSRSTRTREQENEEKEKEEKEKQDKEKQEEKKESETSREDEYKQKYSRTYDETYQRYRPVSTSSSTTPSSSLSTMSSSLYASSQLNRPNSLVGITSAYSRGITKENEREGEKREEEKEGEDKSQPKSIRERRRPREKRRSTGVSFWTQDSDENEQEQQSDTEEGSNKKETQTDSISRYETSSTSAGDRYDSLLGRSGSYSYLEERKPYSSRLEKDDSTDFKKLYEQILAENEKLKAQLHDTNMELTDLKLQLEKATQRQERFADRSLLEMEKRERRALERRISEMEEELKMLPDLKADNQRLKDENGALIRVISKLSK
T1 sequence (Q13976 whole entry partner): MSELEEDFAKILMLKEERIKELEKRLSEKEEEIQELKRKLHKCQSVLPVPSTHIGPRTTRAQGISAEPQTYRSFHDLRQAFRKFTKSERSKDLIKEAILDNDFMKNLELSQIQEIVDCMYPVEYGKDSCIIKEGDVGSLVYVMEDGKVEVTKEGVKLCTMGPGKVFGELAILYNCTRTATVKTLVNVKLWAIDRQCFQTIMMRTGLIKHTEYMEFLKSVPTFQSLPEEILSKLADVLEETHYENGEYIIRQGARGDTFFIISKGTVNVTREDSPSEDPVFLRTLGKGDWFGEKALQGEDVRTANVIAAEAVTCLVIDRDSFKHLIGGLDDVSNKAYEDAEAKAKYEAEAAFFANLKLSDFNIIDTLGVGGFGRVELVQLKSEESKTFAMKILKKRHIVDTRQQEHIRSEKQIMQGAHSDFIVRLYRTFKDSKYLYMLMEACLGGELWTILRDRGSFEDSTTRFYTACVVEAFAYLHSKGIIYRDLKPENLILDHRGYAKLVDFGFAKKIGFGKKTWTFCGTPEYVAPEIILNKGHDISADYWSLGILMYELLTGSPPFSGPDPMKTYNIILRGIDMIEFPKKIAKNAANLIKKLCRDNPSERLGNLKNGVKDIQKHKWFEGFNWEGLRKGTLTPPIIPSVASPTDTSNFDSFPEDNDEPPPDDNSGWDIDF

Molecule: Nc1nc2c(nc(Br)n2[C@@H]2O[C@@H]3COP(=O)(O)O[C@H]3[C@H]2O)c(=O)[nH]1 [8-bromo-cGMP]
- increase of PP1 phosphatase activity in the MBS immunopellet ([1]; 8-bromo-cGMP added to anti-MBS immunopellets, n=5): 32+/−13%
- inhibition of U46619-stimulated myosin light chain phosphorylation ([2]; cells expressing cGK1-59, 20 minute pretreatment with 1 mM 8-Br-cGMP): 35%
- inhibition of U46619-mediated myosin light chain phosphorylation ([2]; control-transfected cells, 20 minute pretreatment with 1 mM 8-Br-cGMP): 79+/−17%

Molecule: Nc1nc2c(nc(Sc3ccc(Cl)cc3)n2[C@@H]2O[C@@H]3CO[P@@](=O)(S)O[C@H]3[C@H]2O)c(=O)[nH]1 [Rp-8-pCPT-cGMPS]
- effect on activation of PP1M by 8-bromo-cGMP ([1]; preincubation of the complex with the inhibitor, two separate experiments): prevented

Molecule: CCCCC[C@H](O)/C=C/[C@@H]1[C@@H](C/C=C\CCCC(=O)O)[C@H]2CO[C@@H]1C2 [U46619]
- myosin light chain phosphorylation ([2]; 2 μM U46619 for 1 minute, baseline 10+/−2%, vector control and cGK1-59-transfected cells): 68+/−2%

Molecule: C=C1[C@@H](O)[C@@H]2O[C@]3(CC[C@H](/C=C/[C@@H](C)[C@@H]4CC(C)=C[C@@]5(O[C@H](C[C@@](C)(O)C(=O)O)CC[C@H]5O)O4)O3)CC[C@H]2O[C@@H]1[C@@H](O)C[C@H](C)[C@H]1O[C@@]2(CCCCO2)CC[C@H]1C [okadaic acid]
- inhibition at 0.002 µM ([3]; 2 nM okadaic acid, n=3, P=NS): 12%
- inhibition at 1 µM ([3]; 1 μM okadaic acid, n=3, p<0.001 vs. untreated): 79%

Molecule: cGK1α1-59: cGK1α truncation mutant containing amino acids 1-59, leucine/isoleucine zipper domain (MSELEEDFAKILMLKEERIKELEKRLSEKEEEIQELKRKLHKCQSVLPVPSTHIGPRTT; isoform alpha; UniProt Q13976 1-59, looked up, fragment)
- interaction with AL9/MBS in yeast two-hybrid (HIS and β-Gal reporter activation) [4]: interacted with AL9

Molecule: cGKLZ1,2A: cGK1α1-59 mutant, Leu12 and Ile19 to Ala (MSELEEDFAKIAMLKEERAKELEKRLSEKEEEIQELKRKLHKCQSVLPVPSTHIGPRTT; isoform alpha; UniProt Q13976 1-59, looked up, variant L12A I19A)
- interaction with AL9/MBS in yeast two-hybrid (HIS and β-Gal reporter activation) [4]: failed to interact with MBS

Molecule: cGKLZ3P: cGK1α1-59 mutant, Leu26 to Pro (MSELEEDFAKILMLKEERIKELEKRPSEKEEEIQELKRKLHKCQSVLPVPSTHIGPRTT; isoform alpha; UniProt Q13976 1-59, looked up, variant L26P)
- interaction with AL9/MBS in yeast two-hybrid (HIS and β-Gal reporter activation) [4]: failed to interact with MBS

Molecule: cGKLZ4,5A: cGK1α1-59 mutant, Ile33 and Leu40 to Ala (MSELEEDFAKILMLKEERIKELEKRLSEKEEEAQELKRKAHKCQSVLPVPSTHIGPRTT; isoform alpha residues 1-59; UniProt Q13976 1-59, looked up, variant I33A L40A)
- interaction with AL9/MBS in yeast two-hybrid (HIS and β-Gal reporter activation) [4]: weak association with MBS

B1: cGK1α68-446: cGK1α mutant corresponding to amino acids 68-446 (protein, UniProt Q13976 68-446, looked up, fragment)
chain: PQTYRSFHDLRQAFRKFTKSERSKDLIKEAILDNDFMKNLELSQIQEIVDCMYPVEYGKDSCIIKEGDVGSLVYVMEDGKVEVTKEGVKLCTMGPGKVFGELAILYNCTRTATVKTLVNVKLWAIDRQCFQTIMMRTGLIKHTEYMEFLKSVPTFQSLPEEILSKLADVLEETHYENGEYIIRQGARGDTFFIISKGTVNVTREDSPSEDPVFLRTLGKGDWFGEKALQGEDVRTANVIAAEAVTCLVIDRDSFKHLIGGLDDVSNKAYEDAEAKAKYEAEAAFFANLKLSDFNIIDTLGVGGFGRVELVQLKSEESKTFAMKILKKRHIVDTRQQEHIRSEKQIMQGAHSDFIVRLYRTFKDSKYLYMLMEACLGGEL
modifications: isoform alpha
- interaction with AL9/MBS in yeast two-hybrid (HIS and β-Gal reporter activation) [4]: failed to associate with AL9

B2: cGK1α68-667: cGK1α mutant corresponding to amino acids 68-667 (protein, UniProt Q13976 68-667, looked up, fragment)
chain: PQTYRSFHDLRQAFRKFTKSERSKDLIKEAILDNDFMKNLELSQIQEIVDCMYPVEYGKDSCIIKEGDVGSLVYVMEDGKVEVTKEGVKLCTMGPGKVFGELAILYNCTRTATVKTLVNVKLWAIDRQCFQTIMMRTGLIKHTEYMEFLKSVPTFQSLPEEILSKLADVLEETHYENGEYIIRQGARGDTFFIISKGTVNVTREDSPSEDPVFLRTLGKGDWFGEKALQGEDVRTANVIAAEAVTCLVIDRDSFKHLIGGLDDVSNKAYEDAEAKAKYEAEAAFFANLKLSDFNIIDTLGVGGFGRVELVQLKSEESKTFAMKILKKRHIVDTRQQEHIRSEKQIMQGAHSDFIVRLYRTFKDSKYLYMLMEACLGGELWTILRDRGSFEDSTTRFYTACVVEAFAYLHSKGIIYRDLKPENLILDHRGYAKLVDFGFAKKIGFGKKTWTFCGTPEYVAPEIILNKGHDISADYWSLGILMYELLTGSPPFSGPDPMKTYNIILRGIDMIEFPKKIAKNAANLIKKLCRDNPSERLGNLKNGVKDIQKHKWFEGFNWEGLRKGTLTPPIIPSVASPTDTSNFDSFPEDNDEPPPDDNSGW
modifications: isoform alpha
- interaction with AL9/MBS in yeast two-hybrid (HIS and β-Gal reporter activation) [4]: failed to associate with AL9
